Measured values taken from US20230416203A1, “POTENT AND SELECTIVE INHIBITORS OF THE CALCIUM-ACTIVATED POTASSIUM CHANNEL, KCA3.1, FOR USE AS PLATFORM THERAPEUTICS” (priority 2020, published 2023).
Where two headings read alike, the source gives them in different places.

Columns and labels:
KCa3.1 channel = KCa3.1 channel (Homo sapiens, UniProt O15554); assay: KCa3.1 patch-clamp (QPatch HTX automated and manual); assay type: cell-based
Procedure: The effect of the compounds on KCa3.1 channel was evaluated by patch-clamp using a QPatch HTX automated electrophysiology platform (Sophion, Denmark) and by manual patch-clamp (HEKA, Germany). For QPatch experiments, the giga-seal and whole-cell requirements for the automated electrophysiology were the following: minimum seal resistance=0.1 GQ; holding potential=−80 mV; holding pressure=−20 mbar; and positioning pressure=−70 mbar. For KCa3.1 experiment, the external solution was Na^+-Ringer's and contained (in mM): 160 NaCl; 10 HEPES; 4.5 KCl; 1 MgCl2; and 2 CaCl2 (pH=7.4, 310 mOsm). […] Following establishment of the whole-cell configuration, cells were held at −80 mV and KCa3.1 currents elicited by a voltage protocol that held at −80 mV for 20 ms, stepped to −120 mV for 20 ms, ramped from −120 to +40 mV over 200 ms, and then stepped back to −120 mV for 20 ms. This pulse protocol was applied every 10 s. Current slopes (in amperes per second) were measured using the Sophion QPatch software and exported to Microsoft Excel and GraphPad Prism 7 for analysis. […] Curve-fitting and IC50 determination were performed using GraphPad Prism software.

CaV1.2 channel = CaV1.2 channel (Homo sapiens, UniProt Q13936); assay: cell-based
Procedure: (§2) The external solution contained (in mM): 140 TEA-Cl; 2 MgCl2; 10 CaCl2; 10 HEPES; and 5 D-glucose (pH=7.4). The internal solution contained (in mM): 120 CsCl; 1 MgCl2; 10 HEPES; 10 EGTA; 0.3 Na2-GTP; and 4 Mg-ATP (pH=7.2). Following establishment of the whole-cell configuration, CaV1.2 current was recorded at holding membrane potential of −80 mV and then depolarized to +10 mV (test pulse was modified slightly due to lead IV test) for 0.3 s. This protocol was repeated at 20 s intervals to observe the effect of the test compounds on the peak of CaV1.2 current. Each cell was incubated with each test compound for 5 min, or until the current reached steady-state. The compounds were applied at multiple concentrations from low to high. Each cell acted as its own control. The decreases in the peak currents were used to determine the IC50 for CaV1.2 inhibition. Curve-fitting and IC50 calculations were performed using IGOR software.

[1] = target: CaV1.2 channel over KCa3.1 (Homo sapiens, UniProt Q13936); assay: in vitro; settings: pH 7.4
Procedure: as §2

KV11.1 (hERG) = target: T1, KV11.1 (hERG) (Homo sapiens, UniProt Q12809); assay: Potassium channels patch-clamp (QPatch), KV11.1 (hERG); assay type: cell-based; settings: CHO Human KV11.1; read-out: KV11.1 (hERG)
T1 construct: host or cells: CHO
Procedure: (§1) The effects of Group 4 compounds on related potassium channels were evaluated by patch-clamp using a QPatch HTX automated electrophysiology platform (Sophion, Denmark). The giga-seal and whole-cell requirements for the automated electrophysiology were the following: minimum seal resistance=0.1 GO, holding potential=−80 mV, holding pressure=−20 mbar; and positioning pressure=−70 mbar.

KV1.3 = target: T2, KV1.3 (Mus musculus, UniProt P16390); assay: Potassium channels patch-clamp (QPatch), KV1.3; assay type: cell-based; settings: L929 Mouse KV1.3; read-out: KV1.3
T2 construct: expressed in transfected cells; host or cells: L929
Procedure: as §1

KV1.5 = target: T3, KV1.5 (Homo sapiens, UniProt P22460); assay: Potassium channels patch-clamp (QPatch), KV1.5; assay type: cell-based; settings: MEL Human KV1.5; read-out: KV1.5
T3 construct: expressed in transfected cells; host or cells: MEL
Procedure: as §1

KCa2.3 = target: T4, KCa2.3 (Homo sapiens, UniProt Q9UGI6); assay: Potassium channels patch-clamp (QPatch), KCa2.3; assay type: cell-based; settings: COS7 Human KCa2.3; read-out: KCa2.3
T4 construct: expressed in transfected cells; host or cells: COS7
Procedure: as §1

KV3.1 = target: T5, KV3.1 (Mus musculus, UniProt P15388); assay: Potassium channels patch-clamp (QPatch), KV3.1; assay type: cell-based; settings: L929 Mouse KV3.1; read-out: KV3.1
T5 construct: expressed in transfected cells; host or cells: L929
T5 sequence (P15388 1-511): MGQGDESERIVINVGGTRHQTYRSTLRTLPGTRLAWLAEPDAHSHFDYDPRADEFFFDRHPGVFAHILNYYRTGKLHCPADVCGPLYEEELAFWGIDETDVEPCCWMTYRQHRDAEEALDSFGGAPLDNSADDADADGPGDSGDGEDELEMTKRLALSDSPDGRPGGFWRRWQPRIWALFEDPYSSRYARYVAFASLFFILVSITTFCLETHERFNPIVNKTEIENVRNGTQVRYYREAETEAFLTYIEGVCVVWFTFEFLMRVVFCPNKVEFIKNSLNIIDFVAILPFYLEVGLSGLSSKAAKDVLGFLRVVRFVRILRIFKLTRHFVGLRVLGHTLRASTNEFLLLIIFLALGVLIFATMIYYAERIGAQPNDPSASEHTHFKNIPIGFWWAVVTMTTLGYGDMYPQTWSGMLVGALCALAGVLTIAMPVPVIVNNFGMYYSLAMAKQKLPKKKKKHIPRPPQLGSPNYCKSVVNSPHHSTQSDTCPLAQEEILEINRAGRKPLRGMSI
Procedure: as §1

KCa2.2 = target: T6, KCa2.2 (Rattus norvegicus, UniProt P70604); assay: Potassium channels patch-clamp (QPatch), KCa2.2; assay type: cell-based; settings: HEK Rat KCa2.2; read-out: KCa2.2
T6 construct: expressed in transfected cells; host or cells: HEK
Procedure: as §1

KV1.1 = target: T7, KV1.1 (Mus musculus, UniProt P16388); assay: Potassium channels patch-clamp (QPatch), KV1.1; assay type: cell-based; settings: L929 Mouse KV1.1; read-out: KV1.1
T7 construct: expressed in transfected cells; host or cells: L929
Procedure: as §1

KCa1.1 = target: T8, KCa1.1 (Homo sapiens, UniProt Q12791); assay: Potassium channels patch-clamp (QPatch), KCa1.1; assay type: cell-based; settings: HEK Human KCa1.1; read-out: KCa1.1
T8 construct: expressed in transfected cells; host or cells: HEK
Procedure: as §1

KV1.7 = target: T9, KV1.7 (Homo sapiens, UniProt Q96RP8); assay: Potassium channels patch-clamp (QPatch), KV1.7; assay type: cell-based; settings: CHL Human KV1.7; read-out: KV1.7
T9 construct: expressed in transfected cells; host or cells: CHL
Procedure: as §1

KV1.2 = target: T10, KV1.2 (Rattus norvegicus, UniProt P63142); assay: Potassium channels patch-clamp (QPatch), KV1.2; assay type: cell-based; settings: B82 Rat KV1.2; read-out: KV1.2
T10 construct: expressed in transfected cells; host or cells: B82
Procedure: as §1

KV1.4 = target: T11, KV1.4 (Homo sapiens, UniProt P22459); assay: Potassium channels patch-clamp (QPatch), KV1.4; assay type: cell-based; settings: LTK Human KV1.4; read-out: KV1.4
T11 construct: expressed in transfected cells; host or cells: LTK
Procedure: as §1

KV4.2 = target: T12, KV4.2 (Rattus norvegicus, UniProt Q63881); assay: Potassium channels patch-clamp (QPatch), KV4.2; assay type: cell-based; settings: LTK Rat KV4.2; read-out: KV4.2
T12 construct: expressed in transfected cells; host or cells: LTK
T12 sequence (Q63881 1-630): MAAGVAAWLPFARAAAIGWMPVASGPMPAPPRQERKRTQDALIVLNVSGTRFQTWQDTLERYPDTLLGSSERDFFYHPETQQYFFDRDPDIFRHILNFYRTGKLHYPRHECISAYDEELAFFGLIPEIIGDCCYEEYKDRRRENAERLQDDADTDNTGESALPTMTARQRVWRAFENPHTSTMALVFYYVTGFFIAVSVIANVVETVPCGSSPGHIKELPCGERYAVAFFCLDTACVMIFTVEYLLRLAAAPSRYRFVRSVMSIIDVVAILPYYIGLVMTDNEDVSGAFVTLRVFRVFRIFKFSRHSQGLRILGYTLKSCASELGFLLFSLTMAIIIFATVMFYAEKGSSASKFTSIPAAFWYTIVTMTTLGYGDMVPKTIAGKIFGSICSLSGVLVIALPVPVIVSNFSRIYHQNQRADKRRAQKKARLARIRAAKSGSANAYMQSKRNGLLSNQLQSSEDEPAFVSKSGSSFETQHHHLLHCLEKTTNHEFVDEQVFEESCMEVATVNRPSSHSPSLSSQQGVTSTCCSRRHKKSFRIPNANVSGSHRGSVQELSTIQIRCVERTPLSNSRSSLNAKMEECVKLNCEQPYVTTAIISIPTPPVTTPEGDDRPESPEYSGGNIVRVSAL
Procedure: as §1

[2] = block of KCa3.1, patch clamp (Table 2), read-out: IC50
[3] = IC50 (nM), block of KCa3.1, patch clamp (Table 2)

CaV1.2 channel over KCa3.1, sequence (Q13936 whole entry): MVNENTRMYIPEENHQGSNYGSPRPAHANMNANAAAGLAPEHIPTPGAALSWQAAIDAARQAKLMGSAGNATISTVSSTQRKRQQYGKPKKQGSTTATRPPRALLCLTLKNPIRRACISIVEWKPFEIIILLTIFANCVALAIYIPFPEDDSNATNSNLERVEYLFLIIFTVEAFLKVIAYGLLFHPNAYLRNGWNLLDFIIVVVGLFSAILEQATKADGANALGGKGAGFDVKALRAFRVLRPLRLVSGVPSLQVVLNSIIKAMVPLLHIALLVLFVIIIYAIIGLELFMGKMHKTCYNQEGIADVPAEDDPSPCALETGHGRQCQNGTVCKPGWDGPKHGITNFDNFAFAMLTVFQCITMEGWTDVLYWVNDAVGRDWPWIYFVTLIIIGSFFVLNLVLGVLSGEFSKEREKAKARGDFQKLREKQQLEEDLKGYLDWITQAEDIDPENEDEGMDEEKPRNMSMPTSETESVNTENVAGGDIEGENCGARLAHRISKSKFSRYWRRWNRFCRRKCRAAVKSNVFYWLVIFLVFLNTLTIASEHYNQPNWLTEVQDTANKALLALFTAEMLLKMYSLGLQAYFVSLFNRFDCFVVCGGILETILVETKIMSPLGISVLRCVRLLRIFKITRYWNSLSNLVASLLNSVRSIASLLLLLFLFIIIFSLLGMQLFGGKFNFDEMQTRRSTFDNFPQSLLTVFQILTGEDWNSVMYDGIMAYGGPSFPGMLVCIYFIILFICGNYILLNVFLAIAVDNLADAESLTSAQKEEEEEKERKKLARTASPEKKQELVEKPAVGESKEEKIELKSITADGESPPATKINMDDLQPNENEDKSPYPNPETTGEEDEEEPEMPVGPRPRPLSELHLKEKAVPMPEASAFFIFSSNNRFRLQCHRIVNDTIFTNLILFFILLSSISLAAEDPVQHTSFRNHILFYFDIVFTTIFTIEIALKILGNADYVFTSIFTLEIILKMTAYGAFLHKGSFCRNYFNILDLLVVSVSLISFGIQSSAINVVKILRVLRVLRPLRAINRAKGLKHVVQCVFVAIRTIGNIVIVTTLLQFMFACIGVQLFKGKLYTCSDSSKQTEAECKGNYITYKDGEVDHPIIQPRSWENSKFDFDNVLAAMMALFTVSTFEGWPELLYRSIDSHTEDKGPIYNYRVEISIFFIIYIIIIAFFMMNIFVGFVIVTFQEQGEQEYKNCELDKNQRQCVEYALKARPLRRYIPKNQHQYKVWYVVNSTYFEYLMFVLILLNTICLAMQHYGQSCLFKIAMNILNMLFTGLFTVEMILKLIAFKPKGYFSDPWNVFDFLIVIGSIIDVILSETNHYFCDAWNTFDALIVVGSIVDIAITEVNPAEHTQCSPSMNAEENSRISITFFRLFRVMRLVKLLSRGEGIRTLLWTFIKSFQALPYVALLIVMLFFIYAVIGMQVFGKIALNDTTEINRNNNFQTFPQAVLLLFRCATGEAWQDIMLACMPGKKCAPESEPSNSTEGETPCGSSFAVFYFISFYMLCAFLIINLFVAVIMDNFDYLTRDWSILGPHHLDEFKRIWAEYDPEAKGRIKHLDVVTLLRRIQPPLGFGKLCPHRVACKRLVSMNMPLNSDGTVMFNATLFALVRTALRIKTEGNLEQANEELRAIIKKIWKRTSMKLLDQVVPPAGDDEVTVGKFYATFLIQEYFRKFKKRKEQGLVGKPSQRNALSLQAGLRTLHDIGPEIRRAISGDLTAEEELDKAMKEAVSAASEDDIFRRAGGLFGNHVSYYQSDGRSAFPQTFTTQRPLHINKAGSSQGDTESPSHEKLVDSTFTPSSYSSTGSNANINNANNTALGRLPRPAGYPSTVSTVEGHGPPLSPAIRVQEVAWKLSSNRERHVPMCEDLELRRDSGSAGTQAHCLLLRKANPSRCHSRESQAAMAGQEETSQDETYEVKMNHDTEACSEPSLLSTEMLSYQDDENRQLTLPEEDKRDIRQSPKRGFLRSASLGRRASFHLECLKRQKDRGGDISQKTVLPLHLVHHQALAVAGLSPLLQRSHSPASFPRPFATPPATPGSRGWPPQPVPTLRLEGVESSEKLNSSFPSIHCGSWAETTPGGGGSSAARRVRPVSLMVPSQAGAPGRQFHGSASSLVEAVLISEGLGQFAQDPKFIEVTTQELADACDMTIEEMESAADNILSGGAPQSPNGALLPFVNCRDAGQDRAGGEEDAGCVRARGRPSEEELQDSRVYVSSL
CaV1.2 channel, sequence (Q13936 whole entry): as above
T2 sequence (P16390 whole entry): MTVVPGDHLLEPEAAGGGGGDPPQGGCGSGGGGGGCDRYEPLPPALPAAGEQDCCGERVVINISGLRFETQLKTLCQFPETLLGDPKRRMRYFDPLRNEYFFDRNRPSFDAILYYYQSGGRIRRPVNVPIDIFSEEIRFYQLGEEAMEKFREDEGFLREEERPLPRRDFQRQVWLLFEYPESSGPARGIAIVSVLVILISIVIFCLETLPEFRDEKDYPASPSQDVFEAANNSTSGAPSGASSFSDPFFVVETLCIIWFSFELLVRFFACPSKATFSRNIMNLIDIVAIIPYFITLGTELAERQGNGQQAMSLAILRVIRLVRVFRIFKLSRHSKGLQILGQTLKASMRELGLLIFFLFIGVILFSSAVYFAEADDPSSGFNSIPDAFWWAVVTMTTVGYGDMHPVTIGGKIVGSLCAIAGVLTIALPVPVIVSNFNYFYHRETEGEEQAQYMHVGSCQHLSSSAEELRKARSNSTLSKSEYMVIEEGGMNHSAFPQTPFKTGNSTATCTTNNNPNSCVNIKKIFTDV
T4 sequence (Q9UGI6 whole entry): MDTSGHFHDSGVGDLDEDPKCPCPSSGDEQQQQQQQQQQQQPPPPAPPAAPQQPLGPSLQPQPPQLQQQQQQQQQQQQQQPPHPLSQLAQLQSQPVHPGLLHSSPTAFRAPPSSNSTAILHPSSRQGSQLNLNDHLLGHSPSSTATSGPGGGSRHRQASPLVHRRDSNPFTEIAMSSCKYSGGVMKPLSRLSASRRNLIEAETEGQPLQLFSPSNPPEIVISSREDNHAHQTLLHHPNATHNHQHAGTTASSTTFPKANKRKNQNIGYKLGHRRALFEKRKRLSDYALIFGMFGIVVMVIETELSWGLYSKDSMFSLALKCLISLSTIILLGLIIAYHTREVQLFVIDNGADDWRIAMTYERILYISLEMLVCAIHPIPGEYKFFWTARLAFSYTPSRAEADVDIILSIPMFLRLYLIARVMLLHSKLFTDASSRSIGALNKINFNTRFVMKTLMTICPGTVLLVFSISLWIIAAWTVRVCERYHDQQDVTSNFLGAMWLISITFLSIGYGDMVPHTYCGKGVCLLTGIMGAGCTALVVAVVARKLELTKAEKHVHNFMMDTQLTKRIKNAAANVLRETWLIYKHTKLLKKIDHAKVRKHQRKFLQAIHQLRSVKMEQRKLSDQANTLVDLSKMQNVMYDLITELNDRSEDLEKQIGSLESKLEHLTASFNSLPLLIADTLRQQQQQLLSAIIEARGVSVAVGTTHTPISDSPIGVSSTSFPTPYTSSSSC
T3 sequence (P22460 whole entry): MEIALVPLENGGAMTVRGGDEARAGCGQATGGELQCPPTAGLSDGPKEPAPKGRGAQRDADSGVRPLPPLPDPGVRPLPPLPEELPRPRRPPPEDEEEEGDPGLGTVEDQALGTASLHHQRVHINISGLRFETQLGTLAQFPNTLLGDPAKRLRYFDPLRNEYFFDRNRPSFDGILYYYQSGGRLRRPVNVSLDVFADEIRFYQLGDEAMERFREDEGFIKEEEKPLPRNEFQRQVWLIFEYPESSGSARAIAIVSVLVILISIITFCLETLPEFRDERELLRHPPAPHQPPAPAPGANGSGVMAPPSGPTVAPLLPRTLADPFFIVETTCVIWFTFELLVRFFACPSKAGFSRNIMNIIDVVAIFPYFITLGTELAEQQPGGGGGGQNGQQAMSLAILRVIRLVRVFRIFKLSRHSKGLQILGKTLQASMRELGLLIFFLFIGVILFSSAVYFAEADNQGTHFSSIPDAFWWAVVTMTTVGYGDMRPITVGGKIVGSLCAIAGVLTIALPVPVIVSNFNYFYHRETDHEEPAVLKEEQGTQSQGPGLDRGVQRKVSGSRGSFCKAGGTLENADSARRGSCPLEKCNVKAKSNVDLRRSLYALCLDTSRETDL
T6 sequence (P70604 whole entry): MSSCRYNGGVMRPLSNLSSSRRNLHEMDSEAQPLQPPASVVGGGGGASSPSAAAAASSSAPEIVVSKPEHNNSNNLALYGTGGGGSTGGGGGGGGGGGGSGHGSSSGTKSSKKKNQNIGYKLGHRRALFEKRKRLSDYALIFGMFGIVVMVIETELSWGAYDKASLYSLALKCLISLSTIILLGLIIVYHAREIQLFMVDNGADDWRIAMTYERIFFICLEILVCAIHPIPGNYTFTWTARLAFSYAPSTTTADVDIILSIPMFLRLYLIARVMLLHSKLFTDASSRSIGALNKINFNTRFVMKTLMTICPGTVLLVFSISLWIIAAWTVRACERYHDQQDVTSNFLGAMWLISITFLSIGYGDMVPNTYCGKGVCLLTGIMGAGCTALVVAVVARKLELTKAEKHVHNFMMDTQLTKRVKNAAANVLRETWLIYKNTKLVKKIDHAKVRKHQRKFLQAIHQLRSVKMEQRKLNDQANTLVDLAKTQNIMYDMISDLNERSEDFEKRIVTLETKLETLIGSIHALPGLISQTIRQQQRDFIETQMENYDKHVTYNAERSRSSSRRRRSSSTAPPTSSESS

| SMILES | IC50 (KCa3.1 channel; [2]) [nM] | IC50 (CaV1.2 channel) [µM] | selectivity ratio [1] | IC50 (KCa3.1 channel; [3]) [nM] | IC50 (KCa3.1 channel; KCa3.1 IC50 (nM), Table 3) [nM] | IC50 (KV11.1 (hERG)) [µM] | IC50 (KV1.3) [µM] | IC50 (KV1.5) [µM] | IC50 (KCa3.1 channel; KCa3.1, Table 5) [nM] | IC50 (KCa2.3) [µM] | other results |
| --- | --- | --- | --- | --- | --- | --- | --- | --- | --- | --- | --- |
| COCCOC(=O)C1=C(C)NC(C)=C(C(=O)OC(C)C)C1c1cccc([N+](=O)[O-])c1 (stereo not shown) [Compound 04] | > 10000 |  |  |  |  |  |  |  |  |  |  |
| COC(=O)C1=C(C)NC(C)=C(C(C)=O)C1c1ccc(F)c(C(F)(F)F)c1 (stereo not shown) [Compound 57] |  | 1.5 | 89 | 16.8 ± 0.9 | 16.8 |  |  |  |  |  |  |
| COC(=O)C1=C(C)NC(C)=C(C(C)=O)C1c1cccc([N+](=O)[O-])c1 (stereo not shown) [Compound 79] |  | 2 | 14 | 142 ± 7.6 | 142 |  |  |  |  |  |  |
| COC(=O)C1=CNC=C(C(=O)OC)C1c1cc(F)c(F)c(C(F)(F)F)c1 [Compound 110, Dimethyl 4-(3,4-difluoro-5-(trifluoromethyl)phenyl)-1,4-dihydropyridine-3,5-dicarboxylate] |  | 9.1 | 1320 | 6.9 ± 1.3 | 6.9 | > 10 | > 10 | > 10 | 6.9 ± 1.3 | > 10 |  |
| COC(=O)C1=CNC(C)=C(C(=O)OC)C1c1ccc(F)c(C(F)(F)F)c1 (stereo not shown) [Compound 104, Dimethyl 4-(4-fluoro-3-(trifluoromethyl)phenyl)-2-methyl-1,4-dihydropyridine-3,5-dicarboxylate] |  | 4.9 | 644 |  | 7.6 | > 10 | > 10 | > 10 | 7.6 ± 1.7 | 8 | IC50 (KV3.1): > 10 µM; IC50 (KCa2.2): > 10 µM; IC50 (KV1.1): > 10 µM; IC50 (KCa1.1): > 10 µM; IC50 (KV1.7): > 10 µM; IC50 (KV1.2): > 10 µM; IC50 (KV1.4): > 10 µM; IC50 (KV4.2): > 10 µM |
| COC(=O)C1=CNC=C(C(=O)OC)C1c1ccc(Cl)c(C(F)(F)F)c1 [Compound 113, Dimethyl 4-(4-chloro-3-(trifluoromethyl)phenyl)-1,4-dihydropyridine-3,5-dicarboxylate] |  | 3.7 | 649 | 5.7 ± 0.3 | 5.7 | > 10 | > 10 | > 10 | 5.7 ± 0.3 | > 10 |  |
| COC(=O)C1=C(C)NC(C)=C(C(=O)OC)C1c1ccccc1[N+](=O)[O-] [Compound 07] | 4000 |  |  |  |  |  |  |  |  |  | IC50 (KCa3.1 channel; Table 3, read-out: KCa3.1 IC50): 4000 nM |
| COC(=O)C1=CNC=C(C(=O)OC)C1c1cccc(C(F)(F)F)c1 [Compound 108, Dimethyl 4-(3-(trifluoromethyl)phenyl)-1,4-dihydropyridine-3,5-dicarboxylate] |  | 22 | 1190 | 18.5 ± 1.1 | 18.5 | > 10 | > 10 | > 10 | 18.5 ± 1.1 | 7 | IC50 (KV3.1): > 10 µM; IC50 (KCa2.2): > 10 µM; IC50 (KV1.1): > 10 µM; IC50 (KCa1.1): > 10 µM; IC50 (KV1.7): > 10 µM; IC50 (KV1.2): > 10 µM; IC50 (KV1.4): > 10 µM; IC50 (KV4.2): > 10 µM |
| CCOC(=O)C1=C(C)NC(C)=C(C(=O)OC)C1c1cccc([N+](=O)[O-])c1 (stereo not shown) [Compound 08] | 2300 |  |  |  |  |  |  |  |  |  | IC50 (KCa3.1 channel; Table 3, read-out: KCa3.1 IC50): 2300 nM |
| COC(=O)C1=C(C)NC(C)=C(C(=O)OCCN2CCN(C(c3ccccc3)c3ccccc3)CC2)C1c1cccc([N+](=O)[O-])c1 (stereo not shown) [Compound 03] | > 10000 |  |  |  |  |  |  |  |  |  |  |
| COC(=O)C1=CNC=C(C(=O)OC)C1c1cc(F)cc(C(F)(F)F)c1 [Compound 109] |  | 10.6 | 2360 | 4.5 ± 0.2 | 4.5 | > 10 | > 10 | > 10 | 4.5 ± 0.2 | > 10 |  |
| COCCOC(=O)C1=C(C)NC(C)=C(C(=O)OCCOC)C1c1cccc([N+](=O)[O-])c1 [Compound 06] |  |  |  | 9880 |  |  |  |  |  |  |  |
| COC(=O)C1=C(C)NC(C)=C(C(=O)OC)C1c1ccc(Cl)c(C(F)(F)F)c1 [Compound 102] |  | 2.4 | 342 | 7 ± 0.2 | 7 |  |  |  |  |  |  |
